From patent US8329940B2, “18β-glycyrrhetinic acid derivatives and synthetic method thereof” (Kaohsiung Medical University, priority 2009, dated 2012)
Like-named read-outs stand apart in the source and are kept apart here.

Columns and labels:
plasmid pBR322DNA = assay: Inhibition of oxidative DNA damage by O2− from xanthine/xanthine oxidase (agarose gel electrophoresis); conditions: 500 μM compound, xanthine (2 mM)/xanthine oxidase (0.7 U/mL), 20 min, 37° C.
Procedure: A mixture of the plasmid pBR322DNA ([…]) and xanthine (2 mM)/xanthine oxidase (0.7 U/mL) in 10 mM phosphate buffer (pH 7.4) is incubated for 20 min with 500 μlM of superoxide dismutase, quercetin, or compounds 2, 6, 7, 13, 14, and 20 in a total volume of 20 μL at 37° C., respectively. After incubating for 20 min, a 15 μL aliquot of mixture is loaded into 1.0% agarose gel containing ethidium bromide (0.05 μg/mL) in Tris-acetate-ethylenediaminetetraacetic acid (EDTA) buffer. The electrophoresis is carried out for 30 min at 100 V. Then the gels are illuminated with UV light and photographed.
ROS have been known to damage many biological macromolecules, for instance, with DNA being a significant target. The ability of 18β-GA derivatives to inhibit the DNA damage caused by O2^− (generated by xanthine (XA)/XO) is studied in vitro by agarose gel electrophoresis. […] For determined the antioxidant activities of these compounds, the radical scavenging activities and XO inhibitory activities of these compounds are analyzed.

xanthine oxidase (XO) [1] = target: xanthine oxidase (XO) (Homo sapiens, UniProt P47989); assay: Xanthine oxidase activity assay; type: biochemical; conditions: xanthine as substrate, 25° C.
Procedure: (§1) The xanthine oxidase activity with xanthine as the substrate is measured at 25° C., according to the protocol of Kong and associates (Cell Mol. […] After preincubation at 25° C. for 15 min, the reaction is initiated by addition of 60 μL of substrate solution (150 μM xanthine in the same buffer). The reaction is monitored at 295 nm. The xanthine oxidase activity is expressed as micromoles of uric acid per minute.

[2] = tested on: accumulation of NO2− in RAW 264.7 cells stimulated with LPS; assay: Nitrite (NO2−) accumulation in RAW 264.7 cells stimulated with LPS (Griess reaction); type: cell-based, Murine; conditions: for IC50: RAW 264.7 cells stimulated with LPS, 24 h, read-out: IC50 (B) accumulation of NO2− in RAW 264.7; for % of inhibition of NO2− accumulation (in parentheses): at the highest concentration, RAW 264.7, LPS
Procedure: (§2) Nitrite is a stable metabolite of NO in the media based on Griess reaction. […] To determine whether the inhibition of NO production in RAW 264.7 cells is attributed to the decrease of iNOS protein expression, Western blotting analysis is performed. Unstimulated cells expressed very low level of iNOS protein, whereas LPS 50 ng/mL induced a large amount of iNOS protein expression. […] Thus, the blockade of iNOS transcription has a critical role as evidenced from the parallelism of the inhibition of NO production and iNOS protein expression by compound 14.

[3] = tested on: superoxide anion formation from rat neutrophils stimulated with fMLP/CB; assay: Superoxide anion formation in rat neutrophils stimulated by fMLP/CB; type: cell-based; conditions: for IC50: rat neutrophils stimulated with fMLP (0.3 μM)/CB (5 μg/mL), 30 min; for % of inhibition of superoxide anion formation, fMLP/CB (in parentheses): at the highest concentration, rat neutrophils
Procedure: Compound stock solution (30 mM in DMSO) is prepared and stored at −25° C. before experiment. In the superoxide anion generation experiments, neutrophils isolated from the peripheral blood of the rats are stimulated with formyl-Met-Leu-Phe (fMLP, 0.3 μM)/Cytochalasin B (CB, 5 μg/mL) for 30 min in the presence of cytochrome c, and the superoxide anion generation is measured in terms of superoxide dismutase-inhibitable cytochrome c reduction.

[4] = tested on: TNF-a formation from RAW 264.7 cells stimulated with LPS; conditions: for % of inhibition of TNF-a formation (in parentheses): at the highest concentration, RAW 264.7, LPS
Procedure: Nitric oxide (NO) in the cell medium is determined by the Griess reaction. In Western blot analysis, cells are washed with PBS twice and harvested in Laemmli sodium dodecyl sulfate (SDS) sample buffer to lyse the cells. Cell lysates are separated by 10% SDS-PAGE, and electrophoretically transferred to the poly(vinylidene difluoride) membranes. Membranes are blocked for 1 h at room temperature in TBST buffer (10 mM Tris-HCl, pH 8.0, 150 mM NaCl and 0.1% Tween 20) containing 5% nonfat milk. Membranes are washed with TBST buffer and then incubated with a monoclonal anti-iNOS antibody (1:1000 dilution) for 1 h. Following washed with TBST buffer, horseradish peroxidase-labeled anti-mouse IgG (1:10,000 dilution) is added therein at room temperature for 1 h. The blots are developed using ECL Western blotting reagents. Secretory levels of TNF-a in culture supernatants are determined by the EIA kit according to the procedure of manufacturer.

[5] = tested on: superoxide anion formation from rat neutrophils stimulated with PMA; assay: Superoxide anion formation in rat neutrophils stimulated by PMA; type: cell-based; conditions: for % of inhibition of superoxide anion formation, PMA (in parentheses): at the highest concentration, rat neutrophils; for IC50: rat neutrophils stimulated with PMA
xanthine oxidase (XO) [6] = assay: Xanthine oxidase activity assay; type: biochemical; conditions: xanthine as substrate, 25° C., 295 nm
Procedure: as §1

iNOS protein expression = iNOS protein expression in LPS-stimulated RAW 264.7 cells (Western blot); type: cell-based, Murine; conditions: RAW 264.7, LPS 50 ng/mL
Procedure: as §2

[7] = read-out: IC50 (C) TNF-a formation in RAW 264.7, RAW 264.7 cells stimulated with LPS
[8] = Mus musculus, RAW264.7, read-out: IC50 (C) TNF-a formation in RAW 264.7

xanthine oxidase (XO), sequence (P47989 whole entry, species assumed): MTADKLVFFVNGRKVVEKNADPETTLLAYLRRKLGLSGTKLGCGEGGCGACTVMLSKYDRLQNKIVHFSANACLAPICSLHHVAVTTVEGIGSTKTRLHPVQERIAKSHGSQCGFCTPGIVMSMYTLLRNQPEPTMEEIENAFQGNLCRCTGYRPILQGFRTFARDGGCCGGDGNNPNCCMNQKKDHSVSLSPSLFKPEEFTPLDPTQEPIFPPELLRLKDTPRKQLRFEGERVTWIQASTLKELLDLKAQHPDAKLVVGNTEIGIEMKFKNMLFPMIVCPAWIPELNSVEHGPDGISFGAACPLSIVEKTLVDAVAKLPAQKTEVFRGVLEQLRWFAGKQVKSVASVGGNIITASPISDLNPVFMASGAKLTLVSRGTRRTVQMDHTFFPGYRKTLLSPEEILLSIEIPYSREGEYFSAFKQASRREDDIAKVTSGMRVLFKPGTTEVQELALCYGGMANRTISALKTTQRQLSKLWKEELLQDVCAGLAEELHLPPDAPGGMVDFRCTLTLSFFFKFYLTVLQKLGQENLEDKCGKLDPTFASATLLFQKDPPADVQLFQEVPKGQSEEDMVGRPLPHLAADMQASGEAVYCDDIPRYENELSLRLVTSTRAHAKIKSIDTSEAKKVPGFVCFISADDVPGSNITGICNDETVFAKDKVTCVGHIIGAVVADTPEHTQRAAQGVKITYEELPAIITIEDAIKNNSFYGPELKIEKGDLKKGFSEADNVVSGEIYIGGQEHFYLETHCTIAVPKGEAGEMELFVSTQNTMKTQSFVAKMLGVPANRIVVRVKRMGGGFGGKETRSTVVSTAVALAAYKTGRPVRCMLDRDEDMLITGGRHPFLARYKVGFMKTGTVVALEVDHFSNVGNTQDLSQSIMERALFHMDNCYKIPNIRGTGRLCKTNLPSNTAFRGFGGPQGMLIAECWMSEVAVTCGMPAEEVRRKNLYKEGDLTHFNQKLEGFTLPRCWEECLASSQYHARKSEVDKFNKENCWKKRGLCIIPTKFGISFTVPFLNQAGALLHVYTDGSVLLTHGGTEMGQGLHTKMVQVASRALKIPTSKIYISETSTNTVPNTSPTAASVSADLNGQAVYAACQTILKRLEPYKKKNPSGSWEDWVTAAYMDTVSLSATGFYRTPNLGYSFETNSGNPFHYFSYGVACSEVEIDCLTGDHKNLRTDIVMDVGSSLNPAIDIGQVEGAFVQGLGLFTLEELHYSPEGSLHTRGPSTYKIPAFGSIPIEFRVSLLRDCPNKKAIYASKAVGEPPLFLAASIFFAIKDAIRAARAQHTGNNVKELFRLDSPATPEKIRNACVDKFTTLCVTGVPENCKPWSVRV
xanthine oxidase (XO) (Homo sapiens, UniProt P47989), sequence (P47989 whole entry, species assumed): as above

| IC50 [2] | IC50 [3] | IC50 [4, 7] | IC50 [5] | SMILES | % of inhibition of NO2− accumulation (in parentheses) [2] | % of inhibition of TNF-a formation (in parentheses) [4] | % of inhibition of superoxide anion formation, fMLP/CB (in parentheses) [3] | % of inhibition of superoxide anion formation, PMA (in parentheses) [5] | further results |
| --- | --- | --- | --- | --- | --- | --- | --- | --- | --- |
| > 30 µM | > 30 µM | > 30 µM | > 10 µM | C=C(C)C1CCC2(C)C(C(=O)C=C3C4CC(C)(C(=O)OC(C)C)CCC4(C)CCC32C)C1(C)CCC(=O)OC (stereo not drawn) [Compound 12] | 43.0 ± 4.3% | 47.0 ± 1.3% | −2.5 ± 11.9% | 28.7 ± 15.9% | inhibitory effect on NO accumulation in the media induced by LPS ([2]; each at 30 μM, RAW 264.7): about 40% |
| > 10 µM | > 30 µM | > 10 µM | > 30 µM | CC1(C(=O)OCc2ccccc2)CCC2(C)CCC3(C)C(=CC(=O)C4C5(C)CCC(=O)OC(C)(C)C5CCC43C)C2C1 (stereo not drawn) [Compound 16] | −2.3 ± 4.6% | 25.3 ± 9.9% | −22.9 ± 7.6% | −10.7 ± 10.2% | – |
| – | – | 2.3 ± 0.5 µM | – | C=C(C)C1CCC2(C)C(C(=O)C=C3C4CC(C)(C(=O)OCc5ccccc5)CCC4(C)CCC32C)C1(C)CCC(=O)O (stereo not drawn) [Compound 17] | – | – | – | – | – |
| > 10 µM | > 30 µM | > 10 µM | > 30 µM | CC(C)NC(=O)C1(C)CCC2(C)CCC3(C)C(=CC(=O)C4C5(C)CCC(=O)OC(C)(C)C5CCC43C)C2C1 (stereo not drawn) [Compound 18] | 30.0 ± 11.9% | 9.7 ± 4.7% | 2.7 ± 12.5% | 48.2 ± 8.4% | – |
| – | 9.8 ± 5.2 µM | – | – | C=C(C)C1CCC2(C)C(C(=O)C=C3C4CC(C)(C(=O)NC(C)C)CCC4(C)CCC32C)C1(C)CCC(=O)O (stereo not drawn) [Compound 20] | – | – | – | – | protective effect on oxidative DNA damage caused by O2− (plasmid pBR322DNA): significant protective effects; inhibition of XO activity (xanthine oxidase (XO) [1]): weakly inhibit |
| – | – | 27.7 ± 7.2 µM | – | C=C(C)C1CCC2(C)C(C(=O)C=C3C4CC(C)(C(=O)Nc5ccccc5)CCC4(C)CCC32C)C1(C)CCC(=O)O (stereo not drawn) [Compound 21] | – | – | – | – | – |
| 1.5 ± 0.2 µM | – | – | – | CC(=N)NCc1cccc(CN)c1 [Compound 1400W, N-(3-aminomethyl) benzylacetamidine, reference compound] | – | – | – | – | – |

The next lines start with the compound.

| SMILES | IC50 [2] | IC50 [3] | IC50 [4, 7] | IC50 [5] | % of inhibition of NO2− accumulation (in parentheses) [2] | % of inhibition of TNF-a formation (in parentheses) [4] | % of inhibition of superoxide anion formation, fMLP/CB (in parentheses) [3] | % of inhibition of superoxide anion formation, PMA (in parentheses) [5] | further results |
| --- | --- | --- | --- | --- | --- | --- | --- | --- | --- |
| CC1(C)C(=O)CC[C@]2(C)[C@H]3C(=O)C=C4[C@@H]5C[C@@](C)(C(=O)O)CC[C@]5(C)CC[C@@]4(C)[C@]3(C)CC[C@@H]12 [Compound 2] | > 30 µM | 10.3 ± 5.2 µM | – | – | 45.6 ± 9.1% | – | – | – | protective effect on oxidative DNA damage caused by O2− (plasmid pBR322DNA): significant protective effects; inhibition of XO activity (xanthine oxidase (XO) [1]): weakly inhibit; inhibitory effect on NO accumulation in the media induced by LPS ([2]; each at 30 μM, RAW 264.7): about 40% |
| COC(=O)C1(C)CCC2(C)CCC3(C)C(=CC(=O)C4C5(C)CCC(O)C(C)(C)C5CCC43C)C2C1 (stereo not drawn) [Compound 3] | – | – | 1.3 ± 0.4 µM | – | – | – | – | – | – |
| CC1(C(=O)O)CCC2(C)CCC3(C)C(=CC(=O)C4C5(C)CCC(=O)OC(C)(C)C5CCC43C)C2C1 (stereo not drawn) [Compound 5] | > 3 µM | > 3 µM | > 3 µM | > 3 µM | 3.0 ± 4.2% | −0.7 ± 2.7% | 27.4 ± 9.2% | −8.2 ± 11.8% | – |
| COC(=O)C1(C)CCC2(C)CCC3(C)C(=CC(=O)C4C5(C)CCC(=O)OC(C)(C)C5CCC43C)C2C1 (stereo not drawn) [Compound 6, 3,4 lactone 30 methyl ester] | – | – | – | – | – | – | – | – | melting point: 166 to 171 °C; protective effect on oxidative DNA damage caused by O2− (plasmid pBR322DNA): significant protective effects; IC50 (xanthine oxidase (XO) [6]): 132 ± 2.7 µM; IC50 ([5]; Neutrophil): 12.9 ± 1.8 µM |
| C=C(C)C1CCC2(C)C(C(=O)C=C3C4CC(C)(C(=O)O)CCC4(C)CCC32C)C1(C)CCC(=O)O (stereo not drawn) [Compound 7] | – | 7 ± 2 µM | – | – | – | – | – | – | protective effect on oxidative DNA damage caused by O2− (plasmid pBR322DNA): significant protective effects; inhibition of XO activity (xanthine oxidase (XO) [1]): weakly inhibit |
| C=C(C)C1CCC2(C)C(C(=O)C=C3C4CC(C)(C(=O)O)CCC4(C)CCC32C)C1(C)CCC(=O)OC (stereo not drawn) [Compound 8] | > 10 µM | > 10 µM | > 10 µM | > 10 µM | 29.6 ± 10.0% | 21.2 ± 8.7% | 81.9 ± 7.4% | 7.4 ± 3.1% | – |
| C=C(C)C1CCC2(C)C(C(=O)C=C3C4CC(C)(C(=O)O)CCC4(C)CCC32C)C1(C)CCC(=O)OC(C)C (stereo not drawn) [Compound 9] | > 30 µM | > 1 µM | > 30 µM | > 1 µM | 39.8 ± 5.4% | 38.4 ± 14.6% | 48.8 ± 6.6% | −7.0 ± 3.0% | – |
| C=C(C)C1CCC2(C)C(C(=O)C=C3C4CC(C)(C(=O)OC)CCC4(C)CCC32C)C1(C)CCC(=O)O (stereo not drawn) [Compound 10] | – | – | 26.1 ± 14.7 µM | – | – | – | – | – | – |
| C=C(C)C1CCC2(C)C(C(=O)C=C3C4CC(C)(C(=O)OC)CCC4(C)CCC32C)C1(C)CCC(=O)OC (stereo not drawn) [Compound 11] | > 30 µM | – | – | – | 44.3 ± 10.5% | – | – | – | inhibitory effect on NO accumulation in the media induced by LPS ([2]; each at 30 μM, RAW 264.7): about 40% |
| C=C(C)C1CCC2(C)C(C(=O)C=C3C4CC(C)(C(=O)OCc5ccccc5)CCC4(C)CCC32C)C1(C)CCC(=O)OC (stereo not drawn) [Compound 13] | – | – | – | – | 44.5 ± 4.2% | – | – | – | melting point: 32 to 38 °C; IC50 [4, 8]: 13.7 ± 4.3 µM; protective effect on oxidative DNA damage caused by O2− (plasmid pBR322DNA): significant protective effects; IC50 (xanthine oxidase (XO) [6]): 175 ± 0.9 µM; IC50 ([2]; Mus musculus, RAW264.7): > 30 µM; inhibition at 30 µM ([2]; Mus musculus, RAW264.7, each at 30 μM, RAW 264.7, read-out: inhibitory effect on NO accumulation in the media induced by LPS): ~40%; IC50 ([5]; Neutrophil): 17 ± 1.5 µM |
| C=C(C)C1CCC2(C)C(C(=O)C=C3C4CC(C)(C(=O)NC(C)C)CCC4(C)CCC32C)C1(C)CCC(=O)OC (stereo not drawn) [Compound 14] | – | – | – | – | – | – | – | – | melting point: 80 to 85 °C; protective effect on oxidative DNA damage caused by O2− (plasmid pBR322DNA): significant protective effects; inhibition of iNOS protein expression (iNOS protein expression): significantly inhibited the iNOS protein expression; IC50 (xanthine oxidase (XO) [6]): 192 ± 2.7 µM; IC50 ([2]; Mus musculus, RAW264.7): 13.1 ± 5 µM; IC50 ([5]; Neutrophil): 15.6 ± 1.7 µM |
| C=C(C)C1CCC2(C)C(C(=O)C=C3C4CC(C)(C(=O)Nc5ccccc5)CCC4(C)CCC32C)C1(C)CCC(=O)OC (stereo not drawn) [Compound 15] | – | – | 15.5 ± 3.2 µM | – | – | – | – | – | – |
| CC1(C(=O)Nc2ccccc2)CCC2(C)CCC3(C)C(=CC(=O)C4C5(C)CCC(=O)OC(C)(C)C5CCC43C)C2C1 (stereo not drawn) [Compound 19] | > 30 µM | > 10 µM | > 30 µM | > 3 µM | 20.5 ± 2.7% | 45.2 ± 14.6% | −1.6 ± 4.4% | 26.9 ± 3.0% | – |
| c1ccc2c(c1)[I+]c1ccccc1-2 [DPI, reference compound] | – | 2.7 ± 2 µM | – | 1.8 ± 0.4 µM | – | – | – | – | – |
| O=c1c(-c2ccc(O)cc2)coc2cc(O)cc(O)c12 [Genistein, genistein, reference compound] | – | – | – | – | – | – | – | – | IC50 [4, 8]: 26.5 ± 9.1 µM |
